Data as given in article PMC9952374, “De Novo Design of Imidazopyridine-Tethered Pyrazolines That Target Phosphorylation of STAT3 in Human Breast Cancer Cells” (Bioengineering, 2023).

What was measured:
[1] = system: phospho-STAT3 in hepatocellular carcinoma cells; design: method as in PMID 30261753; conditions: cited from earlier work
[2] = system: IL-6-induced STAT3 phosphorylation in patient-derived HGG cells; design: method as in PMID 31361777; conditions: cited from earlier work
breast cancer cells = system: breast cancer cells; design: method as in PMID 33126089; conditions: read-out: IC50 anti-proliferation against breast cancer cells; cited from earlier work
MCF-7 cells = experiment: Alamar Blue cell viability assay, MCF-7; type: cell-based, human; conditions: MCF-7 cell viability
Source text: (§1) The goal herein was to assess the ability of imidazopyridine-tethered pyrazolines to inhibit cell viability in mammary carcinoma cells (using the Alamar Blue assay), since pyridine-fused pyrazoles were previously shown to inhibit cell viability in various breast cancer cells. […] The low chemical stability of thio-urea-based compounds may account for the inactivity of most thiourea-conjugated pyrazolines (excluding 4g) against TNBC cells.
(§2) MCF-7 cells were procured from Procell Life Science and Technology Co. LTD, Wuhan, China. Human breast cancer T47D, BT474, and SK-BR-3 cells were obtained from American Type Culture Collection (Washington, DC, NW, USA). Cells (2000) were cultured in MEM or Leibovitz’s L-15 medium enriched with 2% FBS and maintained in a humidified atmosphere of 5% CO2 at 37 °C. A stock solution of DMSO-dissolved compounds was prepared, and this solution was diluted with culture medium as required. MCF-7 Cells (4 × 10^3) were cultured in 96-well plates for 12 h and then treated for 72 h with compounds at concentrations of […]. Using Alamar Blue, the compounds were evaluated for their inhibitory effects
Figure 2 Inhibitory effect of compounds 3f (A), 3e (B), 4g (C), and 3g (D) on the viability of MCF-7 cells. MCF-7 cells were treated with various concentrations of 2-pyrazolines for 72 h and the viability of cells was analyzed by Alamar Blue assays. The results are presented as mean ± S.E.M. of triplicate determinations.

T47D cells = experiment: Alamar Blue cell viability assay, T47D; type: cell-based, human; conditions: for IC50: Homo sapiens, T47D cell viability, Alamar Blue
Source text: as §1, §2

BT-474 cells = experiment: Alamar Blue cell viability assay, BT-474; type: cell-based, human; conditions: for IC50: Homo sapiens, BT-474 cell viability, Alamar Blue
Source text: as §1, §2

SK-BR-3 cells = experiment: Alamar Blue cell viability assay, SK-BR-3; type: cell-based, human; conditions: Homo sapiens, SK-BR-3 cell viability
Source text: as §1, §2

MCF-10A cells = experiment: Alamar Blue cell viability assay, normal MCF-10A; type: cell-based; conditions: Homo sapiens, normal MCF-10A cell viability
TNBC cells = experiment: Effect against TNBC cells; type: cell-based; conditions: in words
Source text: as §1

[3] = system: STAT3 phosphorylation in MCF-7 cells; experiment: Western blot of STAT3 phosphorylation, MCF-7; type: cell-based, human
Description: (§3) Therefore, in vitro experiments were performed to evaluate the effect of compound 3f on the phosphorylation of STAT3 in MCF-7 and T47D cells, utilizing our laboratory protocol. For this purpose, Western blot analysis was performed after the treatment of MCF-7 and T47D cells with compound 3f (0, 1, 3, 5 μM) and using p-STAT3 (Tyr705), p-STAT3 (Ser727), and STAT3 antibodies for blotting.
(§4) As previously reported, whole-cell lysates from cells treated with compound 3f were prepared to detect protein expression and phosphorylation using a lysis buffer [Tris (20 mM, pH 7.4), NaCl (250 mM), EDTA (2 mM, pH 8.0), Triton X-100 (0.1%), aprotinin (0.01 mg/mL), leupeptin (0.005 mg/mL), phenylmethane sulfonyl fluoride (0.4 mM), and NaVO4 (4 mM)]. To remove insoluble material, lysates were centrifuged at 13,000 rpm for 15 min.
(§5) Equal protein concentrations of cell lysate were resolved on sodium dodecyl sulfate-polyacrylamide gel electrophoresis, followed by transfer to nitrocellulose membranes as reported previously. Incubation was carried out overnight at 4 °C with antibodies after treatment with 5% skim milk. Afterward, the membranes were washed, probed with HRP-conjugated secondary antibodies for 2 h, and then visualized using chemiluminescence.
(§6) Figure 3 The lead compound 3f decreases the phosphorylation of STAT3 in MCF-7 and T47D cells in a concentration (A) and time-dependent (B) manner. MCF-7 and T47D cells were treated with the indicated concentration of 3f for 4 h. MCF-7 and T47D cells were treated with 5 µM of compound for the indicated time intervals. Thereafter, equal amounts of lysates were analyzed by Western blot analysis using antibodies against p-STAT3(Tyr705), p-STAT3(Ser727), or STAT3. The expression of each protein was quantified. β-ACTIN was used as input control.

[4] = system: STAT3 phosphorylation in T47D cells; experiment: Western blot of STAT3 phosphorylation, T47D; type: cell-based, human
Description: as §3, §4, §5, §6

[5] = system: nuclear translocation of STAT3 in MCF-7 cells; experiment: Immunocytochemistry of STAT3 nuclear translocation, MCF-7; type: cell-based, human; conditions: MCF-7, immunocytochemistry, 10 μM for 4 h (method) / 5 μM (Figure 10 legend)
Description: (§7) Finally, we attempted to understand the effect of compound 3f on the blocking of pSTAT3 into nuclear functionally since pSTAT3 dimers could enter the nucleus to give transcription. For this purpose, we conducted an immunocytochemistry assay using MCF-7 and T47D cells. […] We also analyzed the distribution of phospho-STAT3 in the nucleus and cytoplasm using fluorescent-labeled antibodies.
(§8) As described earlier, STAT3 phosphorylation in cells was quantified. After compound 3f treatment (10 μM for 4 h), cells were fixed for 20 min with paraformaldehyde (4%). Thereafter, cells were treated with 0.2% Triton X-100 in phosphate-buffered saline for permeabilization, followed by blocking with 5% bovine serum albumin for 1 h. Then, the preparation was incubated overnight at 4 °C with a rabbit polyclonal anti-human STAT3 antibody (dilution, 1:100). […] The slides were mounted and analyzed under an Olympus FluoView FV1000 confocal microscope (Tokyo, Japan).
(§9) Figure 10 The nuclear localization of STAT3 in MCF-7 (A) and T47D (B) cells was inhibited by compound 3f. MCF-7 and T47D cells were treated with the compound 3f (5 μM), and then analyzed for intracellular distribution by immunocytochemistry. […] The fluorescence intensity of p-STAT3 and STAT3 was performed. […]

[6] = system: nuclear translocation of STAT3 in T47D cells; experiment: Immunocytochemistry of STAT3 nuclear translocation, T47D; type: cell-based, human; conditions: 10 μM for 4 h (method) / 5 μM (Figure 10 legend)
Description: as §7, §8, §9

[7] = MCF-7, 5 µM, indicated time intervals
[8] = T47D, 5 µM, indicated time intervals

SMILES: COc1cc(-c2cc3ccccc3[nH]2)[nH]c1-c1nc2cc(Br)cnc2[nH]1 [compound 16]
- level of phospho-STAT3 and downstream signaling cascades [1]: reduce the level

SMILES: CC(C)CCc1cc(-c2ccc(Br)cc2)n(-c2ccc(S(N)(=O)=O)cc2)n1 [MNS1-Leu]
- Akt, STAT1, JAK2, or ERK1/2 phosphorylation [2]: without adversely affecting
- IL-6-induced STAT3 phosphorylation [2]: inhibited

SMILES: COc1cc(Nc2cc(-c3ccnn3C)cc3cc(C(C)=O)oc23)cc(OC)c1 [Compound C6]
- IC50 (breast cancer cells): 0.16 µM

SMILES: Cc1ccc2nc(C)c(C3=NN(C(=S)Nc4ccc([N+](=O)[O-])cc4)C(c4cccc([N+](=O)[O-])c4)C3)n2c1 (centres unmarked) [Compound 4b, 3-(2,6-Dimethylimidazo[1,2-a]pyridin-3-yl)-5-(3-nitrophenyl)-N-(4-nitrophenyl)-4,5-dihydro-1H-pyrazole-1-carbothioamide]
- IC50 (MCF-7 cells; Homo sapiens, MCF7, 72 h): 65.4 ± 1.82 µM
- IC50 (T47D cells): 45.6 ± 1.43 µM
- IC50 (BT-474 cells): 7.26 ± 0.54 µM
- IC50 (SK-BR-3 cells): 69 ± 1.41 µM
- IC50 (MCF-10A cells): > 100 µM
- effect against TNBC cells (TNBC cells): significant effect
- melting point: 230 to 232 °C

SMILES: Cc1ccc2nc(C)c(C3=NN(C(=O)CN4CCN(c5cccc(Cl)c5Cl)CC4)C(c4cccc([N+](=O)[O-])c4)C3)n2c1 (centres unmarked) [Compound 3f, 2-(4-(2,3-Dichlorophenyl)piperazin-1-yl)-1-(3-(2,6-dimethylimidazo[1,2-a]pyridin-3-yl)-5-(3-nitrophenyl)-4,5-dihydro-1H-pyrazol-1-yl)ethanone]
- IC50 (MCF-7 cells; Homo sapiens, MCF7, 72 h): 9.2 µM
- IC50 (MCF-7 cells; 72 h): 9.27 ± 0.97 µM
- IC50 (T47D cells): 23.5 ± 1.25 µM
- viability of T47D cells (T47D cells; in words): inhibited in a dose-dependent manner
- IC50 (BT-474 cells): 13.9 ± 1.32 µM
- viability of BT-474 cells (BT-474 cells; in words): inhibited in a dose-dependent manner
- IC50 (SK-BR-3 cells): > 100 µM
- IC50 (MCF-10A cells): > 100 µM
- effect against TNBC cells (TNBC cells): significant effect
- phosphorylation level of STAT3 at Ser727, dose dependence ([3]; MCF-7, 0, 1, 3, 5 μM, 4 h): reduced the phosphorylation level
- phosphorylation level of STAT3 at Tyr705, dose dependence ([3]; MCF-7, 0, 1, 3, 5 μM, 4 h): reduced the phosphorylation level
- total STAT3 protein expression ([3]; MCF-7, 0, 1, 3, 5 μM, 4 h): without affecting the total STAT3 protein expression
- phosphorylation of STAT3 at Ser727, time dependence [3, 7]: reduced the phosphorylation
- phosphorylation of STAT3 at Tyr705, time dependence [3, 7]: reduced the phosphorylation
- phosphorylation level of STAT3 at Ser727, dose dependence ([4]; T47D, 0, 1, 3, 5 μM, 4 h): reduced the phosphorylation level
- phosphorylation level of STAT3 at Tyr705, dose dependence ([4]; T47D, 0, 1, 3, 5 μM, 4 h): reduced the phosphorylation level
- total STAT3 protein expression ([4]; T47D, 0, 1, 3, 5 μM, 4 h): without affecting the total STAT3 protein expression
- phosphorylation of STAT3 at Ser727, time dependence [4, 8]: reduced the phosphorylation
- phosphorylation of STAT3 at Tyr705, time dependence [4, 8]: reduced the phosphorylation
- nuclear translocation of STAT3 [5]: inhibited the nuclear translocation
- nuclear translocation of pSTAT3 [5]: block the nuclear translocation
- nuclear translocation of STAT3 [6]: inhibited the nuclear translocation
- nuclear translocation of pSTAT3 [6]: block the nuclear translocation
- melting point: 122 to 124 °C
